Laboratory results as given in patent publication EP0612730A1, “O-aryl ethers of morphinans” (F. HOFFMANN-LA ROCHE AG, priority 1993, dated 1994).
Structures can show the parent of a compound that is named as a salt.

Test system: NMDA receptor
Assay: NMDA-induced convulsions in mice (NMDA-induced anticonvulsant test)
Assay type: in vivo
Conditions: NMDA 175 mg/kg i.p. 30 min after i.p. test compound (60 min after oral), percent protection = 100 (E-C)/(10-C), dose and route of test compound not given
Description: As indicated above, the compounds of formula I are active as non-competitive NMDA receptor antagonists and are therefore, useful as neuroprotecting agents, for example, in the treatment of injury to central neurons associated with ischemia, hypoxia, hypoglycemia, epilepsy, Huntington's disease or Alzheimer's disease.
1. NMDA-Induced convulsions in mice
Male mice 45-54 days old and weighing 18-30 g are food-deprived for 24 hrs and then assigned in groups of 10 to various treatment conditions. In general, the method of Lehmann et al. described in J. Pharmacol. Exp. Ther. 240, 1987, 737-746, is used. Mice are administered a test compound intraperitoneally and are injected with NMDA (175 mg/kg i.p.) 30 minutes later. If any test compound is administered orally, the NMDA is injected 60 minutes later. NMDA is dissolved in 0.9% saline. Test compounds are likewise dissolved in 0.9% saline or, when necessary, suspended in 5% gum acacia. All injections are made in a volume of 0.2 ml/20 g body weight. […] Results are represented as the number of mice protected at each dose level of a test compound; this gives an indication of the degree of protection at each dose and indicates whether there was a dose level at which complete protection occurred. A formula is used which adjusts for the number of mice "protected" in the control group, since the dose of NMDA used induces convulsions in less than 100 percent of the mice in the control group. The formula used is: percent protection = 100 (E-C)/(10-C), where E is the number of mice protected at the dose of the test compound, C is the number of mice not convulsing in the vehicle control group, and 10 is the number of mice per group. A given dose level of a compound is regarded as being active if this percent protection score is equal to or greater than 50 percent.

Going from `CC(C)(CO)N1CC[C@]23CCCC[C@H]2[C@H]1Cc1ccc(Oc2ccccn2)cc13` [Example 18, (+)-β,β-dimethyl-3-(2-pyridinyloxy)morphinan-17-ethanol] to `CN1CC[C@@]23CCCC[C@@H]2[C@@H]1Cc1ccc(Oc2ccccn2)cc13` [Oxalate], the “% mice protected” value rises from 50% to 86%.

First: CN1CC[C@@]23CCCC[C@@H]2[C@@H]1Cc1ccc(Oc2nccs2)cc13 [Fumarate (the 1st table, row 4)]
Second: CN1CC[C@@]23CCCC[C@@H]2[C@@H]1Cc1ccc(Oc2cccc(Br)n2)cc13 [Fumarate (the 1st table, row 6)]
The “% mice protected” value of the first is higher: 86% for the first, 67% for the second.

Test system: cell suspensions prepared from embryonic rat cortices
Assay: Acute glutamate neurotoxicity in cortical cell cultures (lactate dehydrogenase release)
Assay type: cell-based
Conditions: embryonic rat cortical cultures 8-12 days in vitro, glutamate for 5 to 30 min at room temperature, LDH in supernatant after overnight at 37°C
Protocol: 2. Acute glutamate neurotoxicity
Single cell suspensions were prepared from embryonic rat cortices by digestion with dispase (2.4 U/ml) and subsequent trituration with fire polished Pasteur pipettes. The cells were then plated on poly-D-lysine coated microtiter plates (96 well/plate, 10⁵ cells/well) in a total volume of 100 µl essential medium supplemented with 10% horse serum and penicillin/streptomycin . Five days later, non-neuronal cell division was halted by exposure to […] combined with a 50% exchange of culture medium. The cultures were used for neurotoxicity assays from 8-12 days in vitro. Acute glutamate toxicity was performed as described in J. Koh et al. in Neurosci. 8, 1988, 185-196, in […] of a control salt solution [CSS: 120 mM NaCl, 5.4 mM KCl, 0.8 mm MgCl₂, 1.8 mM CaCl₂, 25 mM Tris HCl (pH 7.4 at 25°C) and 15 mM glycose] with […] glutamate for 5 to 30 min at room temperature with or without addition of substances to be tested.After washing, the cultures were maintained in 100 µl CSS overnight at 37°C. For quantitation of neurodegeneration, lactate dehydrogenase was measured in the cell culture supernatant as described by J.G. Klingman et al. in Neurosci. Meth. 31, 1990, 47-51. […] From dose response curves, IC₅₀ values were calculated.

Going from `CN1CC[C@@]23CCCC[C@@H]2[C@@H]1Cc1ccc(Oc2ncccc2N)cc13` [2 HCl] to `CN1CC[C@@]23CCCC[C@@H]2[C@@H]1Cc1ccc(Oc2ncccc2[N+](=O)[O-])cc13` [Fumarate], the IC50 falls from 14 µM to 5 µM (2.8-fold). The second is the more potent here.

First: CN1CC[C@]23CCCC[C@H]2[C@H]1Cc1ccc(Oc2ccccn2)cc13 [Example 2, (+)-3-(2-pyridyloxy)-N-methyl-morphinan]
Second: CC(C)(CO)N1CC[C@]23CCCC[C@H]2[C@H]1Cc1ccc(Oc2ccccn2)cc13 [Example 18, (+)-β,β-dimethyl-3-(2-pyridinyloxy)morphinan-17-ethanol]
The IC50 of the first is 3.5-fold lower: 4 µM for the first, 14 µM for the second.

First: Cc1cccc(Oc2ccc3c(c2)[C@@]24CCCC[C@H]2[C@@H](C3)NCC4)n1 [Example 22, (+)-3-[6-methyl-(2-pyridinyl)oxy] morphinan]
Second: c1ccc(Oc2ccc3c(c2)[C@]24CCCC[C@@H]2[C@H](C3)NCC4)nc1 [Maleate]
The IC50 of the first is lower: 1 to 2 µM for the first, 6 µM for the second.

First: CN1CC[C@@]23CCCC[C@@H]2[C@@H]1Cc1ccc(Oc2cccc(Br)n2)cc13 [Fumarate (the 3rd table, row 5)]
Second: Cc1cccc(Oc2ccc3c(c2)[C@]24CCCC[C@@H]2[C@H](C3)N(C)CC4)n1 [Fumarate]
The IC50 of the first is higher: 1 to 2 µM for the first, 0.2 µM for the second.

First: CN1CC[C@@]23CCCC[C@@H]2[C@@H]1Cc1ccc(Oc2nccs2)cc13 [Fumarate (the 3rd table, row 10)]
Second: CN1CC[C@@]23CCCC[C@@H]2[C@@H]1Cc1ccc(Oc2cccs2)cc13 [Fumarate]
The IC50 of the first is 2.6-fold lower: 5 µM for the first, 13 µM for the second. The first is the more potent here.

`CN1CC[C@@]23CCCC[C@@H]2[C@@H]1Cc1ccc(Oc2cccnc2)cc13` [Fumarate] and `CN1CC[C@@]23CCCC[C@@H]2[C@@H]1Cc1ccc(Oc2ccccc2)cc13` [Oxalate] are within 1.5-fold of each other in IC50: 6.4 µM for the first, 6 µM for the second.

Compared with `CN1CC[C@@]23CCCC[C@@H]2[C@@H]1Cc1ccc(Oc2ncccn2)cc13` [Fumarate], `c1csc(Oc2ccc3c(c2)[C@]24CCCC[C@@H]2[C@H](C3)NCC4)n1` [Maleate] is 2-fold higher in IC50: 4 µM for the first, 8 µM for the second. The first is the more potent here.

Going from `O=[N+]([O-])c1cccnc1Oc1ccc2c(c1)[C@]13CCCC[C@@H]1[C@H](C2)NCC3` [HCl] to `c1ccc(Oc2ccc3c(c2)[C@]24CCCC[C@@H]2[C@H](C3)NCC4)cc1` [HCl], the IC50 rises from 0.5 µM to 1 µM (2-fold). The first is the more potent here.
